This is an account of results in patent US5821353A, “DNA encoding 1,3 beta-D glucan synthase subunits” (Merck & Co., Inc., priority 1996, dated 1998).

The test system of experiment [1] is 1,3-beta-D glucan synthase from MY2145 (fks 1-4). Nature of the experiment: 1,3-beta-D glucan synthase assay, membrane preparation. Conditions: membranes of MY2145 (fks 1-4). Format: biochemical, Saccharomyces cerevisiae. How it is done:
(§1) Cell free extracts were prepared from mutant and wild type cells grown to logarithmic phase as previously described (Kang and Cabib, PNAS, 83:5808-5812, 1986). After homogenization with glass beads, the unbroken cells and debris were removed by a low speed centrifugation (1,000×gfor 5 min). The supernatant fluids were centrifuged at 100,000×g for 60 min and the pellets were washed with 2.5 ml (per gram of wet cells) of buffer containing 0.05M potassium phosphate (pH 7.5), 0.5 mM DTT, and 1.0 mM PMSF. The washed pellet was resuspended in the same buffer containing 5% glycerol. This served as the microsomal membranes source containing both chitin and glucan synthase enzymatic activities. The standard 1,3-beta-D glucan synthase reaction was initiated by mixing 35 mcg protein in cocktail I, which included TEK buffer (125 mM Tris chloride, pH 7.5, 31 mM KF, and 1 mM EDTA), 25% PBS, pH 7.0, 3.31 mcM GTP-gamma-S, and 0.25% BSA in a total volume of 69 mcL, with cocktail II, which included 4 units alpha-amylase, 25 mcg UDP-glucose, and 1 microCi UDP-^3 H-glucose, in a total volume of 11 mcL. Following 150 minutes of incubation at 30° C., the incorporation of UDP-^[…] into glucan was measured after precipitation with trichloroacetic acid.
(§2) Crude enzyme preparations associated with cell membranes were tested for glucan and chitin synthesis activities. […]

Experiment [2] relates to 1,3-beta-D glucan synthase from MY2144 (fks 1-3). The experiment is described as above. The class given is biochemical, Saccharomyces cerevisiae. The note with it: membranes of MY2144 (fks 1-3). How it is done:
as §1, §2

A word on the IC50: it is the midpoint of a concentration-inhibition curve. A low value points to greater potency in that assay.

For dihydropapulacandin [L-687,781], the IC50 is 11.5 µg/mL in experiment [1] and 11.1 µg/mL in experiment [2].
